Experimental data reported in ChEMBL document CHEMBL4715697, “Synthesis and biological activity of benzamide DNA minor groove binders” (2016).

Assays:
Assay type in all cases: functional
SNB-19 = assay: Growth inhibition of human SNB-19 cells assessed as cell growth at 0.01 uM incubated for 48 hrs by sulforhodamine B assay relative to control; settings: read-out: Activity
U-251 = assay: Growth inhibition of human U-251 cells assessed as cell growth at 0.01 uM incubated for 48 hrs by sulforhodamine B assay relative to control; settings: read-out: Activity
BT-549 [1] = assay: Growth inhibition of human BT-549 cells assessed as cell growth at 0.01 uM incubated for 48 hrs by sulforhodamine B assay relative to control; settings: read-out: Activity
SR = assay: Growth inhibition of human SR cells assessed as cell growth at 0.1 uM incubated for 48 hrs by sulforhodamine B assay relative to control; settings: read-out: Activity
NCI-H226 = assay: Growth inhibition of human NCI-H226 cells assessed as cell growth at 0.1 uM incubated for 48 hrs by sulforhodamine B assay relative to control; settings: read-out: Activity
NCI-H522 = assay: Growth inhibition of human NCI-H522 cells assessed as cell growth at 0.1 uM incubated for 48 hrs by sulforhodamine B assay relative to control; settings: read-out: Activity
HCT-116 = assay: Growth inhibition of human HCT-116 cells assessed as cell growth at 0.1 uM incubated for 48 hrs by sulforhodamine B assay relative to control; settings: read-out: Activity
HCT-15 = assay: Growth inhibition of human HCT-15 cells assessed as cell growth at 0.1 uM incubated for 48 hrs by sulforhodamine B assay relative to control; settings: read-out: Activity
SW-620 [2] = assay: Growth inhibition of human SW-620 cells assessed as cell growth at 0.1 uM incubated for 48 hrs by sulforhodamine B assay relative to control; settings: read-out: Activity
IGROV-1 [3] = assay: Growth inhibition of human IGROV-1 cells assessed as cell growth at 0.1 uM incubated for 48 hrs by sulforhodamine B assay relative to control; settings: read-out: Activity
ACHN [4] = assay: Growth inhibition of human ACHN cells assessed as cell growth at 0.1 uM incubated for 48 hrs by sulforhodamine B assay relative to control; settings: read-out: Activity
MCF7 = assay: Growth inhibition of human MCF7 cells assessed as cell growth at 0.1 uM incubated for 48 hrs by sulforhodamine B assay relative to control; settings: read-out: Activity
BT-549 [5] = assay: Growth inhibition of human BT-549 cells assessed as cell growth at 0.1 uM incubated for 48 hrs by sulforhodamine B assay relative to control; settings: read-out: Activity
T47D [6] = assay: Growth inhibition of human T47D cells assessed as cell growth at 0.1 uM incubated for 48 hrs by sulforhodamine B assay relative to control; settings: read-out: Activity
MOLT-4 = assay: Growth inhibition of human MOLT-4 cells assessed as cell growth at 1 uM incubated for 48 hrs by sulforhodamine B assay relative to control; settings: read-out: Activity
A549 = assay: Growth inhibition of human A549/ATCC cells assessed as cell growth at 1 uM incubated for 48 hrs by sulforhodamine B assay relative to control; settings: read-out: Activity
HCC 2998 [7] = assay: Growth inhibition of human HCC 2998 cells assessed as cell growth at 1 uM incubated for 48 hrs by sulforhodamine B assay relative to control; settings: read-out: Activity
SW-620 [8] = assay: Growth inhibition of human SW-620 cells assessed as cell growth at 1 uM incubated for 48 hrs by sulforhodamine B assay relative to control; settings: read-out: Activity
SF-295 = assay: Growth inhibition of human SF-295 cells assessed as cell growth at 1 uM incubated for 48 hrs by sulforhodamine B assay relative to control; settings: read-out: Activity
MDA-MB-435 = assay: Growth inhibition of human MDA-MB-435 cells assessed as cell growth at 1 uM incubated for 48 hrs by sulforhodamine B assay relative to control; settings: read-out: Activity
UACC-257 [9] = assay: Growth inhibition of human UACC-257 cells assessed as cell growth at 1 uM incubated for 48 hrs by sulforhodamine B assay relative to control; settings: read-out: Activity
ACHN [10] = assay: Growth inhibition of human ACHN cells assessed as cell growth at 1 uM incubated for 48 hrs by sulforhodamine B assay relative to control; settings: read-out: Activity
RXF 393 = assay: Growth inhibition of human RXF 393 cells assessed as cell growth at 1 uM incubated for 48 hrs by sulforhodamine B assay relative to control; settings: read-out: Activity
PC-3 = assay: Growth inhibition of human PC-3 cells assessed as cell growth at 1 uM incubated for 48 hrs by sulforhodamine B assay relative to control; settings: read-out: Activity
EKVX = assay: Growth inhibition of human EKVX cells assessed as cell growth at 100 uM incubated for 48 hrs by sulforhodamine B assay relative to control; settings: read-out: Activity
SW-620 [11] = assay: Growth inhibition of human SW-620 cells assessed as cell growth at 100 uM incubated for 48 hrs by sulforhodamine B assay relative to control; settings: read-out: Activity
M14 = assay: Growth inhibition of human M14 cells assessed as cell growth at 100 uM incubated for 48 hrs by sulforhodamine B assay relative to control; settings: read-out: Activity
HCC 2998 [12] = assay: Growth inhibition of human HCC 2998 cells incubated for 48 hrs by sulforhodamine B assay
HT-29 = assay: Growth inhibition of human HT-29 cells incubated for 48 hrs by sulforhodamine B assay
SF-539 = assay: Growth inhibition of human SF-539 cells incubated for 48 hrs by sulforhodamine B assay
UACC-257 [13] = assay: Growth inhibition of human UACC-257 cells incubated for 48 hrs by sulforhodamine B assay
IGROV-1 [14] = assay: Growth inhibition of human IGROV-1 cells incubated for 48 hrs by sulforhodamine B assay
NCI/ADR-RES = assay: Growth inhibition of human NCI/ADR-RES cells incubated for 48 hrs by sulforhodamine B assay
SN12C = assay: Growth inhibition of human SN12C cells incubated for 48 hrs by sulforhodamine B assay
T47D [15] = assay: Growth inhibition of human T47D cells incubated for 48 hrs by sulforhodamine B assay
[16] = read-out: LC50 (the source's name)
[17] = read-out: pLC50 (the source's name) (converted)

With CC(=O)Nc1cc(CO[Si](C)(C)C(C)(C)C)cc(NC(=O)c2ccc(C(=O)Nc3cccc(NC(=O)CCCN(C)C)c3)cc2)c1 the growth at 0.01 µM (SNB-19) was 96%, the growth at 0.01 µM (U-251) was 101% and the growth at 0.01 µM (BT-549 [1]) was 95%. It also gave a growth at 0.1 µM (SR) of 103%, a growth at 0.1 µM (NCI-H226) of 93% and a growth at 0.1 µM (NCI-H522) of 91%. It also gave a growth at 0.1 µM (HCT-116) of 99%, a growth at 0.1 µM (HCT-15) of 91% and a growth at 0.1 µM (SW-620 [2]) of 100%. For the same compound, the growth at 0.1 µM (IGROV-1 [3]) was 103%, the growth at 0.1 µM (ACHN [4]) was 97% and the growth at 0.1 µM (MCF7) was 101%. The growth at 0.1 µM (BT-549 [5]) was 93%, the growth at 0.1 µM (T47D [6]) was 97% and the growth at 1 µM (MOLT-4) was 91%. It also gave a growth at 1 µM (A549) of 100%, a growth at 1 µM (HCC 2998 [7]) of 94% and a growth at 1 µM (SW-620 [8]) of 100%. The growth at 1 µM (SF-295) was 127%, the growth at 1 µM (MDA-MB-435) was 94% and the growth at 1 µM (UACC-257 [9]) was 89%. The growth at 1 µM (ACHN [10]) was 98%, the growth at 1 µM (RXF 393) was 106% and the growth at 1 µM (PC-3) was 105%. For the same compound, the growth at 100 µM (EKVX) was 82%, the growth at 100 µM (SW-620 [11]) was 100% and the growth at 100 µM (M14) was 75%. The GI50 (HCC 2998 [12]; read-out: GI50) was > 75 µM, the CC50 (HCC 2998 [12]; [16]) was > 75 µM and the TGI (HCC 2998 [12]; read-out: TGI) was > 75 µM. For the same compound, the GI50 (HCC 2998 [12]; read-out: pGI50 (converted)) was > 75.9 µM, the CC50 (HCC 2998 [12]; [17]) was > 75.9 µM and the TGI (HCC 2998 [12]; read-out: pTGI) was > 75.9 µM. The GI50 (HT-29; read-out: GI50) was > 75 µM, the CC50 (HT-29; [16]) was > 75 µM and the TGI (HT-29; read-out: TGI) was > 75 µM. The GI50 (HT-29; read-out: pGI50 (converted)) was > 75.9 µM, the CC50 (HT-29; [17]) was > 75.9 µM and the TGI (HT-29; read-out: pTGI) was > 75.9 µM. The GI50 (SF-539; read-out: GI50) was > 75 µM, the CC50 (SF-539; [16]) was > 75 µM and the TGI (SF-539; read-out: TGI) was > 75 µM. The GI50 (SF-539; read-out: pGI50 (converted)) was > 75.9 µM, the CC50 (SF-539; [17]) was > 75.9 µM and the TGI (SF-539; read-out: pTGI) was > 75.9 µM. The GI50 (UACC-257 [13]; read-out: GI50) was > 75 µM, the LC50 (UACC-257 [13]; read-out: LC50) was > 75 µM and the TGI (UACC-257 [13]; read-out: TGI) was > 75 µM. The GI50 (UACC-257 [13]; read-out: pGI50 (converted)) was > 75.9 µM, the LC50 (UACC-257 [13]; read-out: pLC50 (converted)) was > 75.9 µM and the TGI (UACC-257 [13]; read-out: pTGI) was > 75.9 µM. For the same compound, the GI50 (IGROV-1 [14]; read-out: GI50) was > 75 µM, the CC50 (IGROV-1 [14]; [16]) was > 75 µM and the TGI (IGROV-1 [14]; read-out: TGI) was > 75 µM. For the same compound, the GI50 (IGROV-1 [14]; read-out: pGI50 (converted)) was > 75.9 µM, the CC50 (IGROV-1 [14]; [17]) was > 75.9 µM and the TGI (IGROV-1 [14]; read-out: pTGI) was > 75.9 µM. For the same compound, the GI50 (NCI/ADR-RES; read-out: GI50) was > 75 µM, the CC50 (NCI/ADR-RES; [16]) was > 75 µM and the TGI (NCI/ADR-RES; read-out: TGI) was > 75 µM. The GI50 (NCI/ADR-RES; read-out: pGI50 (converted)) was > 75.9 µM, the CC50 (NCI/ADR-RES; [17]) was > 75.9 µM and the TGI (NCI/ADR-RES; read-out: pTGI) was > 75.9 µM. For the same compound, the GI50 (SN12C; read-out: GI50) was > 75 µM, the CC50 (SN12C; [16]) was > 75 µM and the TGI (SN12C; read-out: TGI) was > 75 µM. The GI50 (SN12C; read-out: pGI50 (converted)) was > 75.9 µM, the CC50 (SN12C; [17]) was > 75.9 µM and the TGI (SN12C; read-out: pTGI) was > 75.9 µM. The GI50 (T47D [15]; read-out: GI50) was > 75 µM, the CC50 (T47D [15]; [16]) was > 75 µM and the TGI (T47D [15]; read-out: TGI) was > 75 µM. For the same compound, the GI50 (T47D [15]; read-out: pGI50 (converted)) was > 75.9 µM, the CC50 (T47D [15]; [17]) was > 75.9 µM and the TGI (T47D [15]; read-out: pTGI) was > 75.9 µM.
